Test results taken from patent US20250170099A1, “TREATMENT OF POSTNATAL DEPRESSION” (GH RESEARCH IRELAND LIMITED, priority 2022, published 2025).

Legend:
[1] = Pharmacokinetics of 5-MeO-DMT and bufotenine after inhalation; assay type: in vivo, human; settings: within 1 to 4 hours
[2] = system: Salmonella typhimurium TA98, TA100, TA1535, TA1537 and Escherichia coli WP2 uvrA pKM101; assay: Bacterial mutation test; assay type: cell-based
Procedure: These conditions included treatments at concentrations up to 5000 μg/plate (the maximum recommended concentration according to current regulatory guidelines), in the absence and in the presence of a rat liver metabolic activation system (S-9).

COc1ccc2[nH]cc(CCN(C)C)c2c1 [5-MeO-DMT]
accumulation upon repeated administration [1]: No accumulation
in vitro genotoxicity assessment [2]: negative
mutation induction ([2]; up to 5000 μg/plate, without and with S-9): did not induce mutation
